Test results: patent US20220340849A1, “BRAIN-CHIP MODELING NEURODEGENERATION AND NEUROINFLAMMATION IN PARKINSON'S DISEASE” (EMULATE, INC., priority 2019, published 2022)

Key:
[1] = test system: brain channel cells of the SN Brain-Chip (dopaminergic neurons); experiment: Immunostaining of phospho-αSyn129 / αSyn accumulation in the brain channel; type: cell-based, human; settings: 10 mM dose, compared to cells exposed to αSyn fibrils alone
Method: Thus, the capability of exogenously added fibrils was accessed for accumulation and processing cells of a SN Brain-Chip. Recombinant αSyn fibrils (4 μg/mL) was added in the culture medium of the brain channel under continuous flow, on Day 2 of the culture (FIG. 57A).
After three- and six-days upon-exposure to αSyn fibrils (D5 and D8 of the experiment, respectively), the exposed chips underwent immunostaining in order to determine the abundance of phosphoSer129-alph α-synuclein (phospho-αSyn129), a post-translational modification characteristic of pathogenic αSyn species^47,48.
Addition of exogenous alpha-synuclein to brain channel. Human recombinant αSyn monomers and pre-formed fibrils were purchased from Abcam (Monomers; ab218819, Fibrils; ab218819), and were diluted in DopaNeurons Media to a final concentration of 4 μg/mL. […]
For treatment, freshly prepared monomers and fibrils were used. […] Effluents, lysates, and staining were collected/fixed at day three- and day six post-exposure (D5 and D8 respectively), and were analyzed by a microplate reader, ELISA kits, and immunofluorescence microscopy.
Morphological analysis. […] Images were acquired with either an Olympus fluorescence microscope (IX83) or an inverted laser-scanning confocal microscope, e.g. Zeiss confocal microscope (AxiovertZ1 LSM880).

BBB in the SN Brain-Chip = experiment: Permeability assays (apparent permeability, Papp) on the SN Brain-Chip; type: cell-based, human; settings: αSyn fibril damaged SN Brain-Chips, trehalose added via brain channel on day 5, read after 72 hours (D8)
Method: Thus, BBB permeability assays were measured on the SN Brain-Chip after exposure to αSyn fibrils, as compared to exposure to αSyn monomers or PBS.
Permeability Assays, e.g., evaluate the establishment and integrity of the barrier. Apparent permeability (Papp) of the barrier was calculated by following a previously described method^81. […] After 24 hrs, effluent from both channels was sampled to determine the dye's concentration (amount) that had diffused through the membrane. […] Then, the following equation was used to calculate apparent paracellular permeability (Papp) based on a standard curve and using the following formula:

[2] = test system: endothelial cells of the SN Brain-Chip; experiment: Morphological analysis of tight junctions in endothelial cells in the αSyn fibril model; type: cell-based, human
Method: The junction protein expression of Claudin-5 was visualized by immunofluorescence staining with a Claudin-5 antibody and DAPI for cell nuclei. Scale bars: 50 μm.
Morphological analysis. Immunocytochemistry, including immunofluorescence microscopy, was conducted as previously described (Pediaditakis et al., 2020). Brief examples of methods are described herein. Brain-Chips were fixed with 4% paraformaldehyde in PBS for 10 min and then washed with PBS. Cells were blocked on the Brain-Chip in phosphate-buffered saline (PBS) containing 10% donkey serum (Sigma) at 4° C. overnight. Immunostaining was performed after permeabilization in PBS with 0.1% Saponin and blocking for 30 min in 10% donkey serum in PBS with 0.1% Saponin. Immunostaining was performed with specific primary antibodies (anti-TH, anti-GFAP, anti-NG2, anti-TMEM119, anti-pSer129-αSyn, anti-Cleaved Caspase-3, anti-CD68; Abcam), (anti-MAP2, and anti-CD31; Thermo Fisher Scientific), (anti-Claudin-1, anti-Claudin-5, anti-Occludin, anti-ZO-1; Invitrogen), in a 1:100 dilution in 10% donkey serum in PBS with 0.1% Saponin and incubated overnight on the Brain-Chip at 4° C. […] Images were acquired with either an Olympus fluorescence microscope (IX83) or an inverted laser-scanning confocal microscope, e.g. Zeiss confocal microscope (AxiovertZ1 LSM880).

HMC3 cells = settings: 10 ng/ml, 24 h; cited from earlier work
[3] = test system: neurons, astrocytes and microglia in the brain channel of the Brain-Chip; type: cell-based, human
Method: Neuroinflammation incorporates a broad spectrum of complex cellular responses that often contribute to the pathogenesis and progression of various neurological disorders. To study the effects of neuroinflammatory specific signals on the Brain-Chip, TNF-α was perfused within the brain channel at a pathophysiological concentration of 100 ng/mL (FIG. 36A and FIG. 35). […] In addition, excessive TNF-α levels have been reported to have an inhibitory effect on glutamate transporters, resulting in increased glutamate concentration in the CNS parenchyma, linking the central inflammatory response to glutamate-mediated toxicity. To test this hypothesis in this system, secreted glutamate levels were measured by enzyme-linked immunosorbent assay (ELISA).
In one embodiment, a model of neuroinflammation was provided by treating cells as a neurovascular unit (brain side) with TNF-alpha added to the brain channel. TNFα, was previously reported to mediate neuroinflammation and detected in patients with neurological. disorders. On days 0 and 1, cells were seeded on the top and bottom channel of one embodiment of a Brain-Chip, respectively. The Brain-Chip is then allowed to mature under flow conditions for 4 more days and on day 5, cells on the brain side are treated with TNFα, for 48 hrs. During exposure, effluent is collected, and on the last day of the experiment, cells in chips may be imaged, stained for immunohistochemistry and imaged. In some embodiments, cells are lysed for transcriptomic analysis. Thus, modeling neuroinflammation comprises Brain chips and methods of use where TNF-a and/or other inflammatory compounds are added to the Brain channel. In some embodiments, such neuroinflamed brain chips are used in methods for developing treatments in addition for testing compounds for efficacy and safety.
(§1) TNF-α treatment. To mimic the inflammatory condition, cells were treated on either brain or vascular channel with TNF-α (Tumor Necrosis Factor-α, R&D Systems; 210-TA). The treatment was initiated after the formation of a confluent monolayer at ˜5 days in culture. Cells were further incubated in a culturing medium, including TNF-α (100 ng/ml) up to 48 hours.
Morphological analysis. Immunocytochemistry, including immunofluorescence microscopy, was conducted as previously described (Pediaditakis et al., 2020). Brief examples of methods are described herein. Brain-Chips were fixed with 4% paraformaldehyde in PBS for 10 min and then washed with PBS. Cells were blocked on the Brain-Chip in phosphate-buffered saline (PBS) containing 10% donkey serum (Sigma) at 4° C. overnight. […] Images were acquired with either an Olympus fluorescence microscope (IX83) or an inverted laser-scanning confocal microscope, e.g. Zeiss confocal microscope (AxiovertZ1 LSM880).

[4] = test system: Brain-Chip brain channel cells; experiment: Secreted cytokines (MSD V-PLEX) and glutamate in brain channel media of the TNF-α treated Brain-Chip; type: cell-based, human
Method: To determine whether the level of other inflammatory cytokines increases in this TNF-α model, levels of IFNγ, interleukin-1β (IL-1β) and IL-6, were measured following two days of exposure within the brain channel media. These cytokines are associated with the increase of BBB permeability.
In one embodiment, chips were seeded with human iPS-derived glutamatergic and GABAergic neurons (NeuCyte) at a density of 2×10^6 cells/mL and 0.75×10^6 cells/mL respectively, co-cultured with human primary microglia (ATCC; CRL3304) at a density of 1×10^5 cells/mL, human primary astrocytes (NeuCyte), and primary pericytes (Sciencell; 1200) at a density of 1×10^5 cells/mL, using “seeding medium” (NeuCyte), and incubated overnight. The next day, human iPS-derived Brain Microvascular Endothelial cells were seeded in the vascular channel at a density of 14-16×10^6 cells/mL using human serum-free endothelial cell medium supplemented with 5% human serum from platelet-poor human plasma (Sigma) and allowed to attach to the membrane overnight. Chips were then connected to the culture module. At this time, the medium supplying the brain channel was switched to maintenance medium (Neucyte), and the serum of the vascular medium was lowered to 2%. Chips were maintained under constant perfusion at 60 μL/hr through all chips' brain and vascular channels until day 7. Two additional commercial endothelial cell sources were used in experiments. Human primary endothelial cells (Cell Systems) and hCMEC/D3 (Millipore) were cultured in media according to the manufacturer's instructions.
as §1
ELISA analysis. The levels of IFNγ, IL-1β, and IL-6 were measured by M.S.D. 96-well plate Human Pro-Inflammatory V-PLEX Human Pro-Inflammatory Assay kits. The secreted levels of Glutamate were measured by Glutamate Assay Kit (Fluorometric) (Abcam; ab138883).

[5] = test system: Blood-Brain Barrier of the Brain-Chip; experiment: BBB permeability to 3 kDa dextran in the TNF-α treated Brain-Chip; type: cell-based, human
Method: To directly measure how BBB permeability changed over time in response to TNFα, the transport of 3-kDa Cascade Blue dextran was evaluated across the BBB. Fluorescent dextran molecule was introduced in the vascular channel. After 24 hrs and 48 hrs of exposure, the amount of fluorescent dextran collected in the Brain-side was measured.
as §1
Permeability Assays, e.g., evaluate the establishment and integrity of the barrier. Apparent permeability (Papp) of the barrier was calculated by following a previously described method^81. Briefly, 100 μg mL^−1 (0.1 mg/mL) of dextran (3 kDa, e.g. Cascade Blue) and/or 20 μg mL^−1 of Lucifer (0.5 kDa) tracers were dosed (flowed) through the vascular channels for 24 hrs. After 24 hrs, effluent from both channels was sampled to determine the dye's concentration (amount) that had diffused through the membrane. Concentration of the dextran and Lucifer tracers in the outlet samples from both vascular and brain channels was determined by using BioTek (BioTek Instruments, Inc., Winooski, Vt., USA). […]
Here, SA is the surface area of sections of the channels that overlap (0.17 cm^2), QR and QD are the fluid flow rates in the dosing and receiving channels respectively, in units of cm^3/s, CR,0 and CD,0 are the recovered concentrations in the dosing and receiving channels respectively, in any consistent units. IgG permeability was also evaluated after dosing the vascular channel and measuring the IgG content on the brain channel. Detection and quantitation of serum immunoglobulin G (IgG1; Abcam) was performed using the ELISA kit (Abcam), after 24 hrs of perfusion.

[6] = test system: iPS-derived brain endothelial cells; experiment: Immunofluorescence of ZO-1 and ICAM-1 in the vascular channel of the TNF-α treated Brain-Chip; type: cell-based, human
Method: BBB permeability assays were done on the Brain-Chip upon exposure to TNF-α compared to the untreated group.
Morphological analysis. Immunocytochemistry, including immunofluorescence microscopy, was conducted as previously described (Pediaditakis et al., 2020). Brief examples of methods are described herein. Brain-Chips were fixed with 4% paraformaldehyde in PBS for 10 min and then washed with PBS. Cells were blocked on the Brain-Chip in phosphate-buffered saline (PBS) containing 10% donkey serum (Sigma) at 4° C. overnight. Immunostaining was performed after permeabilization in PBS with 0.1% Saponin and blocking for 30 min in 10% donkey serum in PBS with 0.1% Saponin. Immunostaining was performed with specific primary antibodies (anti-TH, anti-GFAP, anti-NG2, anti-TMEM119, anti-pSer129-αSyn, anti-Cleaved Caspase-3, anti-CD68; Abcam), (anti-MAP2, and anti-CD31; Thermo Fisher Scientific), (anti-Claudin-1, anti-Claudin-5, anti-Occludin, anti-ZO-1; Invitrogen), in a 1:100 dilution in 10% donkey serum in PBS with 0.1% Saponin and incubated overnight on the Brain-Chip at 4° C. Additional primary antibodies were MAP2 (Thermo Fisher Scientific; MA512826), VGLUT1 (Thermo Fisher Scientific; 48-2400), GFAP (Abcam; ab53554), NG2 (Abcam; ab83178), CD68 (Abcam; ab213363), ICAM-1 (R&D Systems; BBA3), ZO-1 (Thermo Fisher Scientific; 402200), GLUT1 (Thermo Fisher Scientific; SPM498). Fluorescently conjugated secondary antibodies with Alexa Fluor-488, Alexa Fluor-568, or Alexa Fluor-647 (Abcam) were then used when the primary antibodies are not conjugated, incubated in the dark for 2 hr at room temperature. Cells were then counterstained with DAPI nuclear stain. Images were acquired with either an Olympus fluorescence microscope (IX83) or an inverted laser-scanning confocal microscope, e.g. Zeiss confocal microscope (AxiovertZ1 LSM880).

[7] = TNF-α 100 ng/mL perfused within the brain channel, two days, vs untreated
[8] = TNF-α 100 ng/mL in brain channel (neuroinflammation), two days, vs untreated
[9] = TNF-α perfused within the vascular channel (systemic inflammation), two days, vs untreated
[10] = TNF-α 100 ng/mL within the vascular channel, vs control

## OC[C@H]1O[C@H](O[C@H]2O[C@H](CO)[C@@H](O)[C@H](O)[C@H]2O)[C@H](O)[C@@H](O)[C@@H]1O [trehalose, O-α,-d-glucopyranosyl-[1→1]-α-d-glucopyranoside]
[1]
  accumulation of αSyn within the cells of the brain channel: diminished the accumulation of αSyn
BBB in the SN Brain-Chip
  BBB permeability (3 kDa dextran): significantly decreased BBB permeability
[2]; αSyn fibril damaged SN Brain-Chips, trehalose treated, D8
  tight junctions (ZO-1, Claudin-5): rescuing damaged tight junctions
[2]; αSyn fibril model with or without trehalose treatment
  junction protein expression of ZO-1: restoration of junction protein expression of ZO-1

## IFN-gamma: cytokine used to activate HMC3 microglia cells
HMC3 cells
  markers of activated microglia MHCII, CD68 and CD11b: upregulated

## TNF-α
[3]; TNF-alpha 100 ng/ml
  microglia activation (phenotypic changes, phagocytosis of latex beads): activates microglia as shown by phenotypic changes and induction of phagocytosis
[3]; [7]
  proportion of the GFAP-positive cells: significantly increased
  proportion of the MAP2-positive cells: decreased
[3]; TNF-α 100 ng/mL, brain channel, two days of exposure
  activated microglia (CD68 expression): activated microglia were also observed
[4]; TNF-alpha, 24 and 48 hours
  IL-6 production, Brain chips with and without microglial cells: induced significant IL-6 production in both embodiments
[4]; TNF-alpha, after both 24 and 48 hours
  IL-6 secreted, Brain chips including microglial cells over those without: unexpected significant increase
[4]; TNF-α 100 ng/mL brain channel, two days, vs untreated
  secreted glutamate levels (ELISA), media of the brain channel: significantly higher
[4]; [8]
  level of IFNγ in brain channel media: significantly higher
  level of IL-1β in brain channel media: significantly higher
  level of IL-6 in brain channel media: significantly higher
[4]; TNF-α exposure, Brain-Chip without microglia
  level of IL-6 in brain channel media, absence of microglia: not stigmatically changed
[4]; [9]
  level of IFNγ in brain channel media: significantly higher levels
  level of IL-1β in brain channel media: significantly higher levels
  level of IL-6 in brain channel media: significantly higher levels
[5]; TNF-α 100 ng/mL in brain channel, 24 and 48 hrs, time dependent
  permeability to 3 kDa dextran: significantly increased permeability
[5]; TNF-α 100 ng/mL perfused within the vascular channel (systemic inflammation)
  permeability to 3 kDa dextran: significantly increased permeability
[5]; TNFα 100 ng/mL on the brain side, 24 hrs and 48 hrs
  transport through the BBB (apparent permeability) vs vehicle control: significantly increased by three times over the control
[6]; [10]
  expression of BBB tight junction protein ZO-1: significantly attenuated
  expression of ICAM-1: increased
[6]; TNF-α in brain channel, 48 hrs
  ZO-1 expression: loss of ZO-1
  intercellular adhesion molecule 1 (ICAM-1) expression: excessive increase
